Results taken from the NIST ThermoML archive (doi:10.1021/acs.jced.5b00691).
± gives the expanded uncertainty stated by the source.

Legend:
[1] = for surface tension liquid-gas: surface light scattering; for kinematic viscosity / mass density: Liquid; for kinematic viscosity: Surface laser light scattering (SLLS); for mass density: Vibrating tube method
[2] = xn = mol fraction of the nth substance listed; conditions: x1 = 0.613; for surface tension liquid-gas: surface light scattering; for kinematic viscosity / mass density: Liquid; for kinematic viscosity: Surface Light Scattering; for mass density: Vibrating tube method

COC(F)(C(F)(F)C(F)(F)F)C(F)(C(F)(F)F)C(F)(F)F (configuration not stated)
[1]
Conditions	kinematic viscosity [m2/s]	mass density [kg/m3]	surface tension liquid-gas [mN/m]
273.15 K	1.01e-06 ± 2.5e-08	1714.26 ± 34	16.56 ± 0.67
278.15 K	–	1702.92 ± 34	–
283.15 K	8.49e-07 ± 2.2e-08	1691.49 ± 34	15.81 ± 0.64
288.15 K	–	1680.02 ± 34	–
293.15 K	7.37e-07 ± 1.9e-08	1668.48 ± 33	14.97 ± 0.6
298.15 K	–	1656.86 ± 33	–
303.15 K	6.31e-07 ± 1.7e-08	1645.14 ± 33	14.15 ± 0.57
308.15 K	–	1633.38 ± 33	–
313.15 K	5.56e-07 ± 1.6e-08	1621.44 ± 32	13.43 ± 0.54
318.15 K	–	1609.41 ± 32	–
323.15 K	4.92e-07 ± 1.5e-08	1597.29 ± 32	12.61 ± 0.51
328.15 K	–	1585.05 ± 32	–
333.15 K	4.36e-07 ± 1.4e-08	1572.65 ± 31	11.79 ± 0.48
338.15 K	–	1560.14 ± 31	–
343.15 K	3.95e-07 ± 1.3e-08	1547.49 ± 31	11.03 ± 0.44
348.15 K	–	1534.67 ± 31	–
353.15 K	3.52e-07 ± 1.2e-08	1521.68 ± 30	10.16 ± 0.41
358.15 K	–	1508.51 ± 30	–
363.15 K	3.15e-07 ± 1.1e-08	1495.16 ± 30	9.43 ± 0.38
373.15 K	2.88e-07 ± 1.1e-08	–	8.64 ± 0.35

CCOC(F)(F)C(F)(C(F)(F)F)C(F)(F)F [nonafluoroisobutyl ethyl ether] + CCOC(F)(F)C(F)(F)C(F)(F)C(F)(F)F
[2]
Conditions	kinematic viscosity [m2/s]	mass density [kg/m3]	surface tension liquid-gas [mN/m]
273.15 K	6.63e-07 ± 1.8e-08	1478.05 ± 0.89	16.03 ± 0.65
278.15 K	–	1467.14 ± 0.88	–
283.15 K	5.56e-07 ± 1.6e-08	1456.15 ± 0.87	14.9 ± 0.6
288.15 K	–	1445.07 ± 0.86	–
293.15 K	4.82e-07 ± 1.5e-08	1433.94 ± 0.85	14.01 ± 0.56
298.15 K	–	1422.65 ± 0.84	–
303.15 K	4.29e-07 ± 1.3e-08	1411.31 ± 0.83	13.21 ± 0.53
308.15 K	–	1399.85 ± 0.82	–
313.15 K	3.82e-07 ± 1.3e-08	1388.27 ± 0.81	12.33 ± 0.5
318.15 K	–	1376.56 ± 0.8	–
323.15 K	3.43e-07 ± 1.2e-08	1364.66 ± 0.79	11.42 ± 0.46
328.15 K	–	1352.68 ± 0.78	–
333.15 K	3.13e-07 ± 1.1e-08	1340.45 ± 0.77	10.56 ± 0.43
338.15 K	–	1328.09 ± 0.75	–
343.15 K	2.83e-07 ± 1.1e-08	1315.57 ± 0.74	9.67 ± 0.39
348.15 K	–	1302.85 ± 0.73	–
353.15 K	2.56e-07 ± 1e-08	1289.93 ± 0.72	8.84 ± 0.36
358.15 K	–	1276.74 ± 0.71	–
363.15 K	2.38e-07 ± 1e-08	1263.25 ± 0.7	7.99 ± 0.32
373.15 K	2.22e-07 ± 9.8e-09	–	7.19 ± 0.29
